Results reported in patent US20160122330A1, “PIPERIDINYL BENZOIMIDAZOLE DERIVATIVES AS MPGE-1 INHIBITORS” (NOVASAID AB, priority 2013, published 2016).

How the values were obtained:
[1] = system: A549 lung carcinoma cells; assay: A549 cell-assay, cellular PGE2 synthesis; format: cell-based; settings: Homo sapiens, PGE2 content by EIA, TNFalfa/IL-1beta stimulated cells, 10 μM arachidonic acid, arithmetic mean values
Description: Prostaglandin detection kits were purchased from Cayman Chemicals and used according to the instruction of the manufacturer.
A549 lung carcinoma cells, seeded at a density of 10,000 cells/well, were grown in 96 well tissue culture plates. TNFalfa (5 ng/mL) and IL-1beta (5 ng/mL) were added and the cells were incubated for 16 hours. Cells were washed in PBS and test compounds at the appropriate concentration in HBSS/0.1% BSA were added. After 30 minutes of incubation with test compounds, 10 μM arachidonic acid was added and cells were further incubated for 30 minutes. Supernatant was collected and analyzed for PGE2 content by EIA according to manufacturer's instructions.

[2] = target: T1, recombinant membrane-bound human mPGEs-1 (Homo sapiens, UniProt O14684); assay: Thiobarbituric acid assay (TBA-MDA assay), inhibition of human mPGEs-1; format: biochemical; settings: arithmetic mean values
T1 sequence (O14684 1-152): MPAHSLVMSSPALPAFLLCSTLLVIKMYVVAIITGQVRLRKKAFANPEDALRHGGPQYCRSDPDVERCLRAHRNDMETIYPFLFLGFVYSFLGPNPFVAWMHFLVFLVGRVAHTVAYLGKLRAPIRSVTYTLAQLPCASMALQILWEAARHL
From the text: Malondialdehyde is a product of lipid peroxidation and reacts with thiobarbituric acid forming a red product that absorbs light at 535 nm (W. G. Niehaus, Jr and B. Samuelsson, Eur. J. Biochem 6, 126 (1968)) and is also fluorescent. The extinction coefficient of the TBA-MDA conjugate is 1.56×10^5 M^−1 cm^−1 (E. D. Wills. Biochem. J. 113, 315 (1969). The method used for detection of inhibition of mPGEs-1 is based on the detection of the amount of remaining PGH2. This method was described more than 20 years ago by Basevich et al (Bioorg. Khim. 1983, 9(5), 658-665).
The assay used was a modified variant and used citric acid instead of the TCA-TBA-HCl reagent described in the original assay. In this assay, recombinant membrane-bound human mPGEs-1 was incubated with PGH2. The reaction was stopped by adding citric acid to a final pH 3 and a large excess of iron(II) chloride (20 mM) to convert any remaining PGH2 into MDA and 12-HHT. TBA reagent was finally added (0.67%) and the samples were heated at 80° C. for 30 min. The fluorescence of the conjugate was measured at 485/545 nm.
The product of mPGEs-1 (PGE2) was not measured directly in this assay, but rather the remaining substrate (PGH2) indirectly by adding FeCl2 that converts PGH2 into MDA and 12-HHT. As a positive control, a known mPGEs-1 inhibitor, MK-886, was used and the inhibition afforded by the new inhibitors was compared with that obtained from MK-886.

Row | IC50 [1] [nM] | IC50 [2] [nM] | SMILES
1 | 85 | 58 | Cc1cc2c(cc1Cl)nc(N1CCC(C(=O)N[C@@H]3CCOC3)CC1)n2-c1ccc(C(F)(F)F)cn1 [Example 3, (R)-1-(5-chloro-6-methyl-1-(5-(trifluoromethyl)pyridin-2-yl)-1H-benzo[d]imidazol-2-yl)-N-(tetrahydrofuran-3-yl)-piperidine-4-carboxamide]
2 | 28 | 18 | Cc1cc2c(cc1Cl)nc(N1CCC(C(=O)N[C@@H]3CCOC3)CC1)n2-c1cccc(C(F)(F)F)n1 [Example 1, (R)-1-(5-chloro-6-methyl-1-(6-(trifluoromethyl)pyridin-2-yl)-111-benzo[d]imidazol-2-yl)-N-(tetrahydrofuran-3-yl)piperidine-4-carboxamide]
3 | 122 | 46 | Cc1cc2nc(N3CCC(C(=O)N[C@@H]4CCOC4)CC3)n(-c3ccc(C(F)(F)F)cn3)c2cc1Cl [Example 4, (R)-1-(6-chloro-5-methyl-1-(5-(trifluoromethyl)pyridin-2-yl)-1H-benzo[d]imidazol-2-yl)-N-(tetrahydrofuran-3-yl)-piperidine-4-carboxamide]
4 | 52 | 24 | Cc1cc2nc(N3CCC(C(=O)N[C@@H]4CCOC4)CC3)n(-c3cccc(C(F)(F)F)n3)c2cc1Cl [Example 2, (R)-1-(6-chloro-5-methyl-1-(6-(trifluoromethyl)pyridin-2-yl)-1H-benzoimidazol-2-yl)-N-(tetrahydrofuran-3-yl)piperidine-4-carboxamide]
